The values below come from the METLIN SMRT retention time set (Domingo-Almenara et al. 2019).

This data set is described as follows: gradient 5% acetonitrile 3 min, to 50% in 2 min, to 85% in 15 min, held 3 min, 100 µL/min. To be noted: column: Zorbax Extend-C18 2.1 x 50 mm; eluents: water / acetonitrile, 0.1% formic acid. The gist of the method: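 Retention times of pure standards were taken from adduct peaks that were selected by computer and manually inspected. Over 3 months, mixtures of ~100 molecules were run by HPLC–quadrupole time-of-flight mass spectrometry in positive and negative ionization mode. The Zorbax Extend-C18 column (2.1 × 50 mm, 1.8 μm) ran at 100 μL/min in water and acetonitrile, each containing 0.1% formic acid, with 40 μL dead volume and 900 μL dwell volume.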
The compound `CCN1CCc2c(sc(-n3cccc3)c2CNC(=O)Nc2cc(C)ccc2OC)C1` came in with an RP-LC retention time of 718 s.
The compound `Cc1nc(CC(=O)Nc2cc(F)cc(F)c2)cs1` returned an RP-LC retention time of 796 s.
As for `Cc1cc(OCC(=O)NCc2cccs2)nc(-c2ccc(Cl)cc2)n1`, the RP-LC retention time is 1050 s.
The compound `Cc1ccc(C(CNC(=O)c2cc(-c3ccccc3)on2)N(C)C)o1` (centres undefined) came in with an RP-LC retention time of 683 s.
The value for `O=C(CN1C(=O)C2CCCCN2c2ccc(C(=O)N3CCCCC3)cc21)NCc1cccnc1` (centres undefined) was 615 s; that for `COc1cccc(CN2CCn3c(nnc3[C@@H]3C[C@@H](O)CN3Cc3cccnc3)C2)c1OC` was 573 s.
With `Cc1sc(C)c(C(=O)NC2(c3ccc(C(=O)O)cc3)CC2)c1Cc1ccc(C(F)(F)F)cc1`, the RP-LC retention time worked out at 1070 s.
Take `NC(C(=O)N[C@@H]1C(=O)N2C(C(=O)O)=C(Cl)CS[C@H]12)c1ccccc1` (some centres undefined): the RP-LC retention time was found to be 563 s.
The value for `O=C(NCc1ccc(F)cc1)c1cn(-c2ccc(NC(=O)C3CC3)cn2)cn1` was 748 s; that for `O=C(CCc1ccc2[nH]ccc2c1)N1CCN(c2ccc(F)cc2)CC1` was 865 s; that for `CCCC[C@H]1C(=O)O[C@H](C)[C@H](NC(=O)c2cccc(NC=O)c2OC)C(=O)O[C@@H](C)[C@@H]1OC(=O)CC(C)C` was 1190 s.
`COc1cc(-c2nc3ccc(Cl)cn3c2Nc2ccccc2C)ccc1O` showed an RP-LC retention time of 720 s.
The value for `COc1cc(NC(=O)CSc2nccc(N3CCN(c4cc(C)ccc4C)CC3)n2)cc(OC)c1` was 673 s.
The value for `O=C(NCCc1ccccc1)C(=O)NCC1COc2ccccc2O1` (centres undefined) was 960 s; that for `CCC(=O)NCC12CCCC=C1NC(=O)CC2` (centres undefined) was 597 s.
The value for `OC[C@@H]1CN(Cc2ccc(OC(F)(F)F)cc2)C[C@H]1c1ccncc1` was 521 s.
With `NC(=O)C1CCN(C(=O)c2ccc(CN3C(=O)CCn4nc(-c5ccc(Cl)cc5)cc43)cc2)CC1`, the RP-LC retention time was found to be 713 s.
`O=S(=O)(c1ccccc1)N1CCC(N2C[C@H](Oc3ccccc3)[C@@H]2c2ccncc2)CC1`: the RP-LC retention time is 733 s.
The compound `c1ccc(COCCc2noc(C3CCCN3)n2)cc1` (centres undefined) had an RP-LC retention time of 614 s.
Regarding `O=C(Nc1ccc2c(c1)OCCO2)N1CCC(Cc2nc(-c3ccncc3)n[nH]2)C1` (centres undefined), the RP-LC retention time stood at 580 s.
In the case of `CN(C)CC1(O)CCC2(CCN(C(=O)CC3CCCC3)CC2)CC1`, the RP-LC retention time is 598 s.
Take `Cc1ccccc1Nc1c(-c2ccccc2O)nc2cccc(C)n12`: the RP-LC retention time was determined as 676 s.
With `Cc1cccc(CN2CCN(CC(=O)NCc3ccc4c(c3)OCO4)C(=O)C2=O)c1`, the RP-LC retention time is 723 s.
The compound `CCOc1ccccc1-c1nc(-c2cn(-c3ccc(F)cc3)nn2)no1` yielded an RP-LC retention time of 1090 s.
Consider `COc1ccc(CNC2=NCCNC23CCN(S(=O)(=O)c2cc(C)c(C)cc2C)CC3)cc1`, for which the RP-LC retention time is 794 s.
The compound `Nc1ccc(/C=C/c2ccc3ncccc3c2)cc1` gave an RP-LC retention time of 643 s.
Compound `COc1cccc(NC(=O)Cn2cccc2-c2nnc(-c3ccccc3)o2)c1` yielded an RP-LC retention time of 940 s.
In the case of `Cc1ccccc1S(=O)(=O)N1CCC(Cc2nc3cccnc3n2CC(C)C)C1` (centres undefined), the RP-LC retention time stood at 785 s.
The value for `O=C(Nc1ccc(C(F)(F)F)cc1)N1CC(n2cnnc2-c2ccccc2)C1` was 784 s; that for `Cc1ccc(NC(=O)c2cnc3c(c2)c(=O)n(C)c(=O)n3-c2ccc(F)cc2)cc1` was 936 s.
Compound `CCc1ccccc1NC(=O)CN1C(=O)NC2(CCC(C)CC2)C1=O` (centres undefined) yielded an RP-LC retention time of 698 s.
The value for `COc1ccc(C(=O)N2CCCC2c2nc(-c3cccc(C)c3)no2)cn1` (centres undefined) was 947 s; that for `CCOc1ccccc1NS(=O)(=O)c1cc(-c2c(CC)noc2NC(C)=O)ccc1C` was 846 s.
The value for `Cc1ccc(N2CC(C(=O)NCC(C)(O)C3CC3)CC2=O)cc1C` (centres undefined) was 673 s; that for `O=C(CCCN1C(=O)c2cccc3cccc(c23)C1=O)NC1CCCCC1` was 812 s; that for `COc1ccccc1NC(=O)C1CC(=O)N(c2ccc3oc(C)nc3c2)C1` (centres undefined) was 726 s.
`CCOc1ccc(N(C)S(=O)(=O)c2ccsc2C(=O)NC(C)CCc2ccccc2)cc1` (centres undefined) registered an RP-LC retention time of 1260 s.
The value for `CC(C)Oc1ccc(CN2CC(c3nc(-c4ccsc4)nn3C)C2)cc1` was 696 s; that for `COc1ccc(-c2ccc(N3CCN(C(=O)c4cnc5ccccc5n4)CC3)nn2)cc1` was 615 s; that for `CC(=O)c1cccc(NC(=O)c2cnn3c4c(cnc23)CCCCCC4)c1` was 1030 s.
The value for `COc1ccc(OC)c(NC(=O)c2cn3c(n2)CSCC3)c1` was 767 s.
As for `Cc1ccc(-c2noc(Cn3nc(-c4ccc5c(c4)OCO5)ccc3=O)n2)cc1C`, the RP-LC retention time is 1060 s.
Compound `CCOC(=O)c1c(NCCc2cccs2)c2cccc(Cl)c2[nH]c1=O` had an RP-LC retention time of 844 s.
In turn, `CCN(CC)S(=O)(=O)c1c(C)nn(C(=O)c2ccccc2OC)c1C` registered an RP-LC retention time of 951 s.
In turn, `Cc1ccccc1CNC(=O)c1cn2c(n1)CCCC2` displayed an RP-LC retention time of 762 s.
`CN(C)[C@@H]1CN(C(=O)Cn2c(=O)oc3cc(Cl)ccc32)C[C@H]1CO`: the RP-LC retention time stood at 596 s.
As for `Cc1cc(C)cc(NC(=O)Nc2nccn(-c3ccc4c(c3)CCC4)c2=O)c1`, the RP-LC retention time was 1210 s.
The value for `CC(C)CCNC(=O)CC1Sc2ncccc2N(CC(C)C)C1=O` (centres undefined) was 868 s.
`Cc1ccc(C)c(NC(=O)CSc2nc(N3CCCCC3)nc3ccccc23)c1` displayed an RP-LC retention time of 804 s.
The value for `CCc1nc(-c2csc(S(=O)(=O)N3CCCC(C(=O)NC(C)C)C3)c2)no1` (centres undefined) was 865 s.
Regarding `COc1ccc(C(=O)N2CCC(COc3ccc(C(=O)NC(C)C)cc3)CC2)c(C)c1`, the RP-LC retention time amounted to 851 s.
In the case of `Cc1nnc(N2CCCC(C(=O)N3CCN(c4ccccc4)CC3)C2)c2nn(-c3ccccc3)c(C)c12` (centres undefined), the RP-LC retention time worked out at 759 s.
In turn, `COc1ccc(Nc2nc(N3CCN(CCO)CC3)nc3c2C(=O)CCC3)cc1` gave an RP-LC retention time of 637 s.
The value for `CCSc1nc2ccc(NS(=O)(=O)Cc3ccc(Cl)cc3)cc2s1` was 1080 s; that for `O=C(Nc1ccccc1F)c1cc(C2CC2)on1` was 655 s; that for `CC(Oc1cccc(F)c1)C(=O)NCCOc1ccccc1` (centres undefined) was 857 s.
Take `CCOC(=O)c1cc2n(n1)CC(C)(C(=O)NC1CCCC1)N(c1ccccc1F)C2=O` (centres undefined): the RP-LC retention time is 876 s.
The value for `CN(C)C(=O)c1csc(S(=O)(=O)N2CCC(C(=O)NC3CCCCCC3)CC2)c1` was 783 s; that for `Cn1cc(-c2noc(-c3cc(F)ccc3Cl)n2)ccc1=O` was 894 s; that for `CC1CCCN(C(=O)C2CC(=O)N(c3ccccc3)C2)C1` (centres undefined) was 786 s.
Compound `Cc1c(Cl)cccc1S(=O)(=O)N1CCC(C(=O)NCc2csc(-c3cccs3)n2)CC1` came in with an RP-LC retention time of 1020 s.
In turn, `O=C(NCCn1nc(-c2ccc(F)cc2)ccc1=O)Nc1cccs1` had an RP-LC retention time of 692 s.
For `CCCC(=O)Nc1ccc(CCc2nc3ccc(C(=O)NC4CCCC4)cc3[nH]2)cc1`, the RP-LC retention time was found to be 650 s.
Compound `CCOC(=O)CC1(NC(=O)N2CCN(c3nc4ccccc4n3C)CC2)CCCCC1` came in with an RP-LC retention time of 593 s.
Compound `O=C(NC1CCCCCCC1)C1CCN(S(=O)(=O)c2cc(C(=O)N3CCOCC3)cs2)CC1` yielded an RP-LC retention time of 838 s.
For the compound `Cc1ccc(-c2noc(CCN3CCN(c4ccccc4)CC3)n2)cc1`, the RP-LC retention time was found to be 751 s.
The value for `COc1ccc(C2CCN(C(=O)Nc3cccc(C(F)(F)F)c3)C2)cc1` (centres undefined) was 954 s; that for `Cc1nn(-c2ccccc2)c(C)c1S(=O)(=O)N1CCC(C(=O)NCc2ccc3c(c2)OCO3)CC1` was 884 s.
`Cc1c(Cl)cccc1Nc1c(-c2ccc(N3CCOCC3)cc2)nc2cnccn12`: the RP-LC retention time turned out to be 916 s.
The compound `CC(C)(C)n1nc2c(c1NC(=O)c1nc3ccccc3s1)CSC2` displayed an RP-LC retention time of 952 s.
For `COc1ccccc1C(=O)NC1(C(F)(F)F)C(=O)N(C2CCCC2)C(C)=C1C(C)=O` (centres undefined), the RP-LC retention time was 1000 s.
The value for `O=C(c1ccco1)N1CCN(C(=O)C2CCN(c3ccc(N4CCCCC4)nn3)CC2)CC1` was 607 s.
`Cc1ccc2c(c1)N(C(=O)Cn1cc(-c3noc(-c4ccncc4)n3)nc1C)CCO2` had an RP-LC retention time of 735 s.
In turn, `Cc1sc2cc(C(=O)NC(C)C)[nH]c2c1CN1CCCCC1` displayed an RP-LC retention time of 643 s.
In turn, `O=C(Nc1ccc(F)cc1)N1CCc2nc(-c3ccc(Cl)cc3)ncc2C1` came in with an RP-LC retention time of 1010 s.
In turn, `O=C(NCCCc1ccccc1)C1CCN(c2cnn(Cc3ccccc3)c(=O)c2)CC1` yielded an RP-LC retention time of 818 s.
`O=C(C1CCN(c2nc3ccsc3c(=O)n2-c2ccccc2)CC1)N1CCN(c2ccccc2)CC1`: the RP-LC retention time was found to be 917 s.
`CCC1(O)CCC12CCN(C(=O)C1CC1)CC2` (centres undefined) returned an RP-LC retention time of 678 s.
The compound `O=C(NCc1cccs1)C1CCN(c2cnc(N3CCCCCC3)nc2)CC1` returned an RP-LC retention time of 732 s.
